In patent US7348427B2, “Antipathogenic benzamide compounds” (Genesoft Pharmaceuticals, Inc., priority 2001, dated 2008):
Converted amounts (≈) assume the structure as drawn.

Columns and labels:
[1] = system: Candida albicans (ATCC 38247); assay: Antifungal MIC assay; assay type: cell-based; details: B = C. albicans ATCC 38247
Procedure, shortened: (§1)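 Activity is measured as MIC in microtiter broth microdilution under NCCLS M7-A4, M11-A4 and M27-T guidance, with the yeast tested by the method in Murray's Manual of Clinical Microbiology.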

[2] = system: E. faecalis ATCC 29212; assay: MIC, NCCLS broth microdilution assay; assay type: cell-based, Enterococcus faecalis; details: C = E. faecalis ATCC 29212
Procedure, shortened: (§2)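 MICs were determined by NCCLS broth microdilution following documents M7-A4 and M11-A4 (1997).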

[3] = system: Staphylococcus aureus (ATCC 27660, a methicillin resistant strain (MRSA)); assay: MIC, NCCLS broth microdilution assay; assay type: cell-based; details: F = S. aureus ATCC 27660
Procedure, shortened: as §1

[4] = system: Bacillus cereus (ATCC 11778); assay: MIC, NCCLS broth microdilution assay; assay type: cell-based; details: A = B. cereus ATCC 11778
Procedure, shortened: as §1

[5] = system: Staphylococcus aureus (ATCC 13709, a methicillin sensitive strain (MSSA)); assay: MIC, NCCLS broth microdilution assay; assay type: cell-based; details: E = S. aureus ATCC 13709
Procedure, shortened: as §1

[6] = system: S. pneumoniae ATCC 49619; assay: MIC, NCCLS broth microdilution assay; assay type: cell-based, Streptococcus pneumoniae; details: H = S. pneumoniae ATCC 49619
Procedure, shortened: as §2

[7] = Staphylococcus aureus, read-out: Minimum Inhibitory Concentration (MIC)

Compound	Minimum Inhibitory Concentration (MIC) [1]	Minimum Inhibitory Concentration (MIC) [2]	Minimum Inhibitory Concentration (MIC) [3]	Minimum Inhibitory Concentration (MIC) [4]	Minimum Inhibitory Concentration (MIC) [5]	Minimum Inhibitory Concentration (MIC) [6]	MIC ([1]; Candida albicans, ATCC38247, read-out: Minimum Inhibitory Concentration (MIC)) [mg/L]	MIC ([2]; Enterococcus faecalis, ATCC29212, read-out: Minimum Inhibitory Concentration (MIC)) [mg/L]	MIC [3, 7] [mg/L]	MIC ([4]; Bacillus cereus, ATCC11778, read-out: Minimum Inhibitory Concentration (MIC)) [mg/L]	MIC [5, 7] [mg/L]	MIC ([6]; Streptococcus pneumoniae, ATCC49619, read-out: Minimum Inhibitory Concentration (MIC)) [mg/L]
Cn1cc(NC(=O)c2cc(NC(=O)c3cc(NC(=O)c4cc(NC(=O)c5ccccc5F)cn4C)cn3C)cn2C)cc1C(=O)NCCN1CCOCC1 [Compound B-44]	>32 mg/L	++ (++ = 4 < MIC < 12)	++ (++ = 4 < MIC < 12)	+++ (+++ = MIC ≦ 4)	+++ (+++ = MIC ≦ 4)	+++ (+++ = MIC ≦ 4)	–	–	–	–	–	–
Cn1cc(NC(=O)c2cc(NC(=O)c3cc(NC(=O)c4ccc(F)cc4F)cn3C)cn2C)cc1C(=O)NCCN(CCO)CCO [Compound B-25]	>32 mg/L	+ (+ = 12 ≦ MIC ≦ 32)	+ (+ = 12 ≦ MIC ≦ 32)	+ (+ = 12 ≦ MIC ≦ 32)	+ (+ = 12 ≦ MIC ≦ 32)	+++ (+++ = MIC ≦ 4)	–	–	–	–	–	–
Cn1cc(NC(=O)c2cc(NC(=O)c3ccc(Cl)cc3F)c[nH]2)cc1C(=O)NCCN1CCOCC1 [Compound A-17]	–	–	–	–	–	–	> 32	≤ 4	4 to 12 (≈ 7.74 to 23.2 µM)	12 to 32 (≈ 23.2 to 61.9 µM)	4 to 12 (≈ 7.74 to 23.2 µM)	≤ 4
Cn1cc(NC(=O)c2cc(NC(=O)c3cc(NC(=O)c4ccc(Cl)cc4F)c[nH]3)cn2C)cc1C(=O)NCCc1cccnc1 [Compound A-24]	>32 mg/L	++ (++ = 4 < MIC < 12)	+++ (+++ = MIC ≦ 4)	+++ (+++ = MIC ≦ 4)	>32 mg/L	+++ (+++ = MIC ≦ 4)	–	–	–	–	–	–
Cn1cc(NC(=O)c2cc(NC(=O)c3cc(NC(=O)c4ccc(Cl)cc4F)c[nH]3)cn2CCCCl)cc1C(=O)NCCN1CCOCC1 [Compound C-19]	>32 mg/L	+++ (+++ = MIC ≦ 4)	+++ (+++ = MIC ≦ 4)	+++ (+++ = MIC ≦ 4)	+++ (+++ = MIC ≦ 4)	+++ (+++ = MIC ≦ 4)	–	–	–	–	–	–
Cn1cc(NC(=O)c2cc(NC(=O)c3cc(NC(=O)c4ccc(Cl)cc4F)c[nH]3)cn2CCCO)cc1C(=O)NCCN1CCOCC1 [Compound C-15]	>32 mg/L	+ (+ = 12 ≦ MIC ≦ 32)	+++ (+++ = MIC ≦ 4)	++ (++ = 4 < MIC < 12)	++ (++ = 4 < MIC < 12)	+++ (+++ = MIC ≦ 4)	–	–	–	–	–	–
Cn1cc(NC(=O)c2cc(NC(=O)c3cc(NC(=O)c4ccc(F)cc4F)cn3C)cn2C)cc1C(=O)NCCc1ccccn1 [Compound B-82]	>32 mg/L	+++ (+++ = MIC ≦ 4)	+++ (+++ = MIC ≦ 4)	+++ (+++ = MIC ≦ 4)	+++ (+++ = MIC ≦ 4)	+++ (+++ = MIC ≦ 4)	–	–	–	–	–	–
Cn1cc(NC(=O)c2cc(NC(=O)c3ccc(C#N)cc3)cn2C)cc1C(=O)NCCN1CCOCC1 [Compound B-69]	>32 mg/L	+ (+ = 12 ≦ MIC ≦ 32)	>32 mg/L	+ (+ = 12 ≦ MIC ≦ 32)	+ (+ = 12 ≦ MIC ≦ 32)	+++ (+++ = MIC ≦ 4)	–	–	–	–	–	–
CN(C)CCCn1cc(NC(=O)c2cc(NC(=O)c3ccc(Cl)cc3F)c[nH]2)cc1C(=O)Nc1cc(C(=O)NCCN2CCOCC2)n(C)c1 [Compound D-26]	+ (+ = 12 ≦ MIC ≦ 32)	+++ (+++ = MIC ≦ 4)	+++ (+++ = MIC ≦ 4)	+++ (+++ = MIC ≦ 4)	+++ (+++ = MIC ≦ 4)	+++ (+++ = MIC ≦ 4)	–	–	–	–	–	–
